Numbers after ± are expanded uncertainties.
Columns and labels:
[1] = for mass density: 101.33 kPa
[2] = refractive index (Na D-line) (dimensionless); conditions: 101.33 kPa, Liquid, Standard Abbe refractometry

Row | Structure (SMILES) | refractive index ([2]; 298.15 K) | mass density ([1]; 293.15 K, Liquid) [kg/m3] | refractive index ([2]; 293.15 K) | mass density ([1]; 298.15 K, Liquid) [kg/m3] | also measured
1 | Cc1ccc(O)cc1 [4-methylphenol] | 1.5391 ± 0.0008 | – | – | – | mass density ([1]; 298.15 K, Crystal): 1154 ± 2.1 kg/m3; vapor or sublimation pressure ([1]; 475.35 K, Liquid): 94.95 ± 5 kPa
2 | Brc1ccccc1 [bromobenzene] | – | 1488.2 ± 2.8 | 1.5571 ± 0.0008 | – | vapor or sublimation pressure ([1]; 426.85 K, Liquid): 94.95 ± 5 kPa
3 | CN(C)C=O [dimethylformamide] | – | 948.7 ± 1.6 | 1.4305 ± 0.0008 | – | vapor or sublimation pressure ([1]; 424.15 K, Liquid): 94.95 ± 5 kPa
4 | Cc1cccc(O)c1 [3-methylphenol] | 1.5395 ± 0.0008 | – | – | 1030 ± 1.8 | vapor or sublimation pressure ([1]; 473.55 K, Liquid): 94.95 ± 5 kPa
5 | Cc1ccccc1O [2-methylphenol] | 1.5467 ± 0.0008 | – | – | 1046 ± 1.8 | vapor or sublimation pressure ([1]; 463.55 K, Liquid): 94.95 ± 5 kPa
6 | O=[N+]([O-])c1ccccc1 [nitrobenzene] | 1.55 ± 0.0008 | – | – | 1198 ± 2.2 | vapor or sublimation pressure ([1]; 481.15 K, Liquid): 94.95 ± 5 kPa

Reference: the NIST ThermoML archive (doi:10.1016/j.fluid.2006.12.010)
